Assay results published in publication PMC8899516, “Structure-Activity Relationship Studies of 4-((4-(2-fluorophenyl)piperazin-1-yl)methyl)-6-imino-N-(naphthalen-2-yl)-1,3,5-triazin-2-amine (FPMINT) Analogues as Inhibitors of Human Equilibrative Nucleoside Transporters” (Frontiers in Pharmacology, 2022).

Assays:
ENT1 = target: T1, ENT1 (Homo sapiens, UniProt Q99808); test: [3H]uridine uptake in PK15NTD/ENT1 cells; type: cell-based; details: for IC50: [3H]uridine 1 μM, 1 min, PK15NTD/ENT1 cells, read-out: IC50 against ENT1
T1 construct: expressed in transfected cells
T1 sequence (Q99808 1-456): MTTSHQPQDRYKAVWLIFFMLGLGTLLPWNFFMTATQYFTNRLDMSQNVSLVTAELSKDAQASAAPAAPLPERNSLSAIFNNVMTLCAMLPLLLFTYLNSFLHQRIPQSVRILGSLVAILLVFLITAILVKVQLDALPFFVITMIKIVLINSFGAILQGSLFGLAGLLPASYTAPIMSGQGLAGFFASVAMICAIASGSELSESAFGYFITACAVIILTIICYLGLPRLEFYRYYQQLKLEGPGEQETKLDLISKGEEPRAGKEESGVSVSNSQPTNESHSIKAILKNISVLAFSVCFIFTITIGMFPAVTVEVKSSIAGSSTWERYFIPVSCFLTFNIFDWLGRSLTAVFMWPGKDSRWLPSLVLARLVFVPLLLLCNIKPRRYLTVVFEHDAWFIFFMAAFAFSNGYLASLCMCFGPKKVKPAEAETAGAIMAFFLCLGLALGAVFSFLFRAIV
Experimental: (§1) Nucleoside transporter-deficient porcine kidney fibroblast cells (PK15NTD) stably transfected with cloned human ENT1 or ENT2 ([Ward et al., 2000]) were used as the in vitro models. The cells were cultured in Dulbecco’s Modified Eagle’s Medium (DMEM) supplemented with 10% (v/v) foetal bovine serum, 0.5 mg/ml geneticin, 100 units/ml penicillin, 100 μg/ml streptomycin and 0.25 μg/ml of amphotericin B at 37°C in 5% CO2/95% air.
(§2) Confluent monolayers of PK15NTD/ENT1 and PK15NTD/ENT2 cells in 24-well plates were washed thrice with HEPES-buffered Ringer’s solution containing (mM): 135 NaCl, 10 glucose, 5 KCl, 5 HEPES, 3.33 NaH2PO4, 1.0 CaCl2, 1.0 MgCl2, 0.83 Na2HPO4; pH 7.4. The cells were incubated with different concentrations of FPMINT analogues (from 10 nM to 100 μM) containing [^3H]uridine (2 μCi/ml, 1 μM) for 1 min. Passive uridine uptake was determined by incubating the cells in HEPES-buffered Ringer’s solution containing [^3H]uridine in the presence of 0.5 mM NBMPR. The cells were rapidly washed five times with ice-cold phosphate-buffered saline (PBS). After air-drying, the cells were solubilised by overnight incubation in 500 μl of 5% Triton-X100. Next, 300 μl of the cell lysates were mixed with 2 ml of scintillation liquid. The radioactivity of each sample was quantified by a scintillation counter. The protein content in each well was determined spectrophotometrically using a commercial bicinchoninic acid assay (Pierce Biochemicals, Rockford, IL). Uptake values were expressed as picomoles of [^3H]uridine per milligram of cellular protein per minute.
(§3) All data were analysed by GraphPad Prism software (San Diego, CA, United States). Data are expressed as mean ± standard error (SE) of three experiments performed in triplicate. The IC50 values were determined from the dose-response curves fitted with a logistic function. For the kinetic study of [^3H]uridine uptake, apparent K m and V max values were determined from the Michaelis-Menten equation, and K i was determined from the X-intercept of linear regression. Analysis of variance and Student’s t-test were performed for multiple and paired variables, respectively. p values of <0.05 were considered to be statistically significant.

ENT2 = target: T2, ENT2 (Homo sapiens, UniProt Q14542); test: [3H]uridine uptake in PK15NTD/ENT2 cells; type: cell-based; details: for effect on ENT2: [3H]uridine uptake, 10 nM–100 μM analogue; for IC50: [3H]uridine 1 μM, 1 min, PK15NTD/ENT2 cells, read-out: IC50 against ENT2; for selectivity to ENT2 over ENT1: more selective to ENT2 than to ENT1, from IC50 values
T2 construct: expressed in transfected cells
T2 sequence (Q14542 1-456): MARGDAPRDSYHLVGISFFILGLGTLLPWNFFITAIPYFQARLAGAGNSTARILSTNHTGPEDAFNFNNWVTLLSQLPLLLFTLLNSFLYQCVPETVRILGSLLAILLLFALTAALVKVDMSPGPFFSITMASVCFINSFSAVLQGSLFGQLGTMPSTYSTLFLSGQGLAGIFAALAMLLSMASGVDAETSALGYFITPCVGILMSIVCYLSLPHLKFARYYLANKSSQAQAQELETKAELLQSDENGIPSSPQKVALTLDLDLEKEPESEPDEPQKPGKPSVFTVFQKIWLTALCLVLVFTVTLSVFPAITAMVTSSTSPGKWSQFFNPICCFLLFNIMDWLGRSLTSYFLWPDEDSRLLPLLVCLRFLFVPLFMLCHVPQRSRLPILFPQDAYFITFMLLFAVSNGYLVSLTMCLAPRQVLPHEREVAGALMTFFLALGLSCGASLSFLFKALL
Experimental: as §1
as §2, with “The” for “Confluent monolayers of PK15NTD/ENT1 and PK15NTD/ENT2 cells in 24-well plates were washed thrice with HEPES-buffered Ringer’s solution containing (mM): 135 NaCl, 10 glucose, 5 KCl, 5 HEPES, 3.33 NaH2PO4, 1.0 CaCl2, 1.0 MgCl2, 0.83 Na2HPO4; pH 7.4. The”
as §3

ENT1 and ENT2 [1] = tested on: ENT1 and ENT2; design: method as in Ward et al., 2000; details: substrate affinity; ref Ward et al., 2000; cited from earlier work
ENT1 and ENT2 [2] = details: ref Ward et al., 2000, cited from earlier work; for fold more potent in inhibiting ENT1 than in inhibiting ENT2: Playa et al., 2014
ENT4 = tested on: ENT4; design: method as in Baldwin et al., 2005; Barnes et al., 2006; details: ref Baldwin et al., 2005; Barnes et al., 2006; cited from earlier work
ENT3 = tested on: ENT3; design: method as in Baldwin et al., 2005; Barnes et al., 2006; details: ref Baldwin et al., 2005; Barnes et al., 2006; cited from earlier work

Nc1nc(CN2CCN(c3ccccc3)CC2)nc(Nc2cccc3ccccc23)n1 [Compound 2a]
IC50 (ENT1): 105 µM
effect on ENT2 (ENT2): did not inhibit

Nc1ncnc2c1ncn2[C@@H]1O[C@H](CO)[C@@H](O)[C@H]1O [adenosine]
affinity of ENT1 fold higher than that of ENT2 (ENT1 and ENT2 [1]): 2.8 fold

Nc1nc(CN2CCN(c3ccccc3F)CC2)nc(Nc2ccccc2)n1 [Compound 1a]
effect on ENT1 (ENT1; [3H]uridine uptake, 10 nM–100 μM analogue): negligible effects
effect on ENT2 (ENT2): negligible effects

Cc1cn([C@H]2C[C@H](O)[C@@H](CO)O2)c(=O)[nH]c1=O [thymidine]
affinity of ENT1 fold higher than that of ENT2 (ENT1 and ENT2 [1]): 2.6 fold

Nc1nc(CN2CCN(c3cccc(Cl)c3)CC2)nc(Nc2cccc3ccccc23)n1 [Compound 2b]
IC50 (ENT1): 12.7 µM
IC50 (ENT2): 2.95 µM
selectivity to ENT2 over ENT1 (ENT2): 4.29 fold

CCc1ccc(Nc2nc(N)nc(CN3CCN(c4ccccc4F)CC3)n2)cc1 [Compound 1c]
IC50 (ENT1): 171 µM
IC50 (ENT2): 36.8 µM
selectivity to ENT2 over ENT1 (ENT2): 4.647 fold

Nc1nc2c(ncn2[C@@H]2O[C@H](CO)[C@@H](O)[C@H]2O)c(=O)[nH]1 [guanosine]
affinity of ENT1 fold higher than that of ENT2 (ENT1 and ENT2 [1]): 19.3 fold

COc1ccc(Nc2nc(N)nc(CN3CCN(c4ccccc4F)CC3)n2)cc1 [Compound 1d]
IC50 (ENT1): 0.59 µM
IC50 (ENT2): 77.1 µM

Nc1ccn([C@@H]2O[C@H](CO)[C@@H](O)[C@H]2O)c(=O)n1 [cytidine]
affinity of ENT1 fold higher than that of ENT2 (ENT1 and ENT2 [1]): 7.7 fold

COc1cc(C(=O)OCCCN2CCCN(CCCOC(=O)c3cc(OC)c(OC)c(OC)c3)CC2)cc(OC)c1OC [dilazep]
fold more potent in inhibiting ENT1 than in inhibiting ENT2 (ENT1 and ENT2 [2]): 502 fold

Nc1nc(CN2CCN(c3ccc(F)cc3)CC2)nc(Nc2cccc(Cl)c2)n1 [Compound 3b]
IC50 (ENT1): 1.65 µM
effect on ENT2 (ENT2): did not inhibit

OCCN(CCO)c1nc(N2CCCCC2)c2nc(N(CCO)CCO)nc(N3CCCCC3)c2n1 [dipyridamole]
fold more potent in inhibiting ENT1 than in inhibiting ENT2 (ENT1 and ENT2 [2]): 71 fold
IC50 of ENT2 fold higher than that of ENT1 (ENT1 and ENT2 [2]): 71 fold
sensitivity of ENT4 to inhibitor (ENT4): inert
sensitivity of ENT3 to inhibitor (ENT3): inert

O=[N+]([O-])c1ccc(CSc2ncnc3c2ncn3[C@@H]2O[C@H](CO)[C@@H](O)[C@H]2O)cc1 [NBMPR, S-(4-nitrobenzyl)-6-thioinosine]
fold more potent in inhibiting ENT1 than in inhibiting ENT2 (ENT1 and ENT2 [2]): 7,000 fold
IC50 of ENT2 fold higher than that of ENT1 (ENT1 and ENT2 [2]): 7,000 fold
sensitivity of ENT4 to inhibitor (ENT4): inert
sensitivity of ENT3 to inhibitor (ENT3): inert

Nc1nc(CN2CCN(c3ccccc3F)CC2)nc(Nc2cccc(Cl)c2)n1 [Compound 1b]
IC50 (ENT1): 1.82 µM
effect on ENT2 (ENT2): no effect
